The supplement of paper PMC8960247
± gives the standard error.

How the values were obtained:
[1] = test system: 621-103 (TSC2-rescued); assay: relative viability vs DMSO; higher = less cytotoxic; details: serum: 10% FBS, 72 h
[2] = test system: 621-102 (TSC2-deficient); assay: as above; details: serum: 10% FBS, 72 h
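Note: immortalized renal angiomyolipoma cells stably carrying empty vector or TSC2, dosed in 384-well plates in DMEM, viability normalized to vehicle-treated wells within each plate.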

Compound	relative viability ([1]; 0.0001 µM)	relative viability ([1]; 0.001 µM)	relative viability ([1]; 0.01 µM)	relative viability ([1]; 0.1 µM)	relative viability ([1]; 1 µM)	relative viability ([1]; 10 µM)	relative viability ([2]; 0.0001 µM)	relative viability ([2]; 0.001 µM)	relative viability ([2]; 0.01 µM)	relative viability ([2]; 0.1 µM)	relative viability ([2]; 1 µM)	relative viability ([2]; 10 µM)
CC(C)OC(=O)C1=CN(C(=O)c2ccc(F)c(F)c2)CC(C)(C)c2c1[nH]c1ccccc21	102.7 ± 0.95%	104 ± 1.7%	98.4 ± 1.8%	99 ± 2.6%	94.1 ± 5.9%	99.22 ± 0.99%	111 ± 1.3%	106.3 ± 0.78%	104 ± 1.6%	102 ± 6.7%	101 ± 2.5%	101 ± 3.1%
CNC(=O)Nc1ccc(-c2nc(N3CC4CCC(C3)O4)c3cnn(C4CCC5(CC4)OCCO5)c3n2)cc1	108 ± 6.1%	95.7 ± 2.1%	73.8 ± 4.8%	44.1 ± 1.1%	34.1 ± 0.59%	22 ± 0.064%	97.36 ± 0.31%	93.4 ± 2.7%	76.3 ± 3.4%	37.41 ± 0.17%	25.6 ± 0.73%	9.06 ± 0.58%
COc1ccccc1N1CCN(CCN(C(=O)C2CCCCC2)c2ccccn2)CC1	102.1 ± 1%	99 ± 5.8%	99.5 ± 5.7%	110 ± 1.8%	108 ± 1.8%	98.5 ± 2.6%	108 ± 0.74%	102.3 ± 0.41%	100 ± 1.5%	104.2 ± 0.32%	97.19 ± 0.27%	99.4 ± 1%
C[C@@H]1CCO[C@H]2Cn3cc(C(=O)NCc4ccc(F)cc4F)c(=O)c(O)c3C(=O)N12	111.7 ± 0.85%	109 ± 5.8%	111 ± 2.1%	117 ± 2.9%	112 ± 4%	109 ± 3.2%	102 ± 1.5%	104 ± 2.7%	102.2 ± 0.83%	106 ± 2.5%	93.7 ± 9.2%	108 ± 3.5%
C[S+]([O-])c1ccc(-c2nc(-c3ccc(F)cc3)c(-c3ccncc3)[nH]2)cc1 (centres undefined)	101.3 ± 0.64%	98.42 ± 0.75%	98.6 ± 1.3%	99.1 ± 2%	100 ± 1.8%	98.1 ± 1.3%	112 ± 5%	108.1 ± 0.69%	98.1 ± 2.8%	102 ± 1.2%	111 ± 2%	110 ± 2.8%
Cc1[nH]c(/C=C2\C(=O)Nc3ccc(S(=O)(=O)N(C)c4cccc(Cl)c4)cc32)c(C)c1C(=O)N1CCN(C)CC1	97.3 ± 1.6%	97.86 ± 0.64%	98.4 ± 2%	99.52 ± 0.97%	101.8 ± 0.38%	91.5 ± 3.8%	98.4 ± 1.2%	101 ± 2.5%	101 ± 1.8%	91.6 ± 1.4%	100 ± 2.6%	87.2 ± 1.5%
Cc1ccc(C(=O)N(CCCN)[C@@H](c2oc3cc(Cl)ccc3c(=O)c2Cc2ccccc2)C(C)C)cc1	40.45 ± 0.2%	46.1 ± 0.55%	59.1 ± 2%	50.6 ± 1.8%	47.3 ± 5.6%	1.36 ± 0.14%	61.7 ± 2.2%	67.7 ± 4.4%	75.95 ± 0.11%	69.9 ± 1.3%	80.2 ± 2.9%	1.36 ± 0.19%
Cc1cccc(-c2[nH]c(C(C)(C)C)nc2-c2ccc3nccnc3c2)n1	98.4 ± 1.4%	99.6 ± 2.7%	97.58 ± 0.26%	95.9 ± 2.7%	97.18 ± 0.62%	83.8 ± 1.5%	115.4 ± 0.35%	111 ± 2.5%	101.9 ± 0.66%	108.6 ± 0.23%	105 ± 2.2%	38.9 ± 2.9%
Cc1cnc(Nc2ccc(N3CCN(C)CC3)cc2)nc1Nc1cccc(S(=O)(=O)NC(C)(C)C)c1	102 ± 2.6%	98.71 ± 0.22%	95.5 ± 4.1%	97.4 ± 1.1%	51 ± 1.3%	1.33 ± 0.2%	116.1 ± 0.23%	120 ± 3.8%	109 ± 6.5%	107 ± 2.4%	80.4 ± 2.8%	3.65 ± 0.42%
Cn1cc(C2=C(c3ccc(Cl)cc3Cl)C(=O)NC2=O)c2ccccc21	77.6 ± 1.8%	84.2 ± 1.4%	89.8 ± 2.4%	92.5 ± 5.7%	80.2 ± 1.9%	76.2 ± 6.7%	107.48 ± 0.025%	103 ± 2.8%	98.2 ± 1.1%	90.4 ± 5.3%	96.83 ± 0.6%	97.5 ± 1.9%
NC(=O)c1ccc(-c2nc(-c3ccccn3)c(-c3ccc4c(c3)OCO4)[nH]2)cc1	102 ± 3.6%	108.5 ± 0.46%	111 ± 4.9%	98.44 ± 0.36%	98.1 ± 1.6%	94.07 ± 0.91%	111 ± 2.5%	116 ± 1.5%	114.2 ± 0.63%	117 ± 3.9%	112.6 ± 1%	106.7 ± 0.3%
O=C(NC[C@H](O)CO)c1ccncc1Nc1ccc(I)cc1F	101.8 ± 0.97%	104 ± 1.9%	105 ± 1.4%	103.5 ± 0.29%	99.919 ± 0.052%	78.4 ± 1.2%	100.3 ± 0.48%	92 ± 13%	101 ± 3.2%	97.01 ± 0.18%	90.5 ± 2%	55.7 ± 0.91%
O=C1NC(=O)/C(=C/c2ccc(-c3ccc(F)cc3O)o2)S1	92.9 ± 9.3%	95.3 ± 2.2%	96.95 ± 0.74%	101 ± 5.6%	88.2 ± 2%	108 ± 3.4%	111 ± 2.5%	109 ± 2.8%	102 ± 1.2%	96.7 ± 3.6%	106 ± 2.1%	90.8 ± 2.4%
O=C1NC(=O)/C(=C/c2ccc3c(c2)OC(F)(F)O3)S1	98.2 ± 7.7%	91.4 ± 7.6%	90.7 ± 1.1%	95.5 ± 2.7%	98.1 ± 6.7%	88.49 ± 0.37%	104 ± 2.5%	97.7 ± 4.8%	102 ± 1.9%	104.3 ± 0.58%	100.2 ± 0.23%	102.4 ± 0.35%
O=C1NC(=O)/C(=C\c2ccc3nccnc3c2)S1	100.2 ± 0.99%	96.5 ± 2.7%	98.02 ± 0.75%	100 ± 1.5%	99.5 ± 1.9%	98.8 ± 1.3%	106 ± 1.9%	114 ± 1.2%	120.5 ± 1.1%	108 ± 7.8%	105.2 ± 0.38%	110 ± 3.2%
Oc1c2ccccc2c2c3c(cccc13)N=N2	100.6 ± 0.42%	101 ± 1.9%	101.1 ± 0.35%	100.1 ± 0.67%	98.2 ± 1.6%	95.2 ± 2.7%	104.7 ± 0.13%	103 ± 4.5%	105 ± 1.1%	103 ± 1.3%	102 ± 4%	83.3 ± 2.2%
Oc1ccc(-c2nc(-c3ccc(F)cc3)c(-c3ccncc3)[nH]2)cc1	99.5 ± 0.91%	99.83 ± 0.79%	99.49 ± 0.82%	97.7 ± 1.4%	98.4 ± 1.1%	98.8 ± 1.3%	104 ± 3.7%	106.7 ± 0.78%	104 ± 3.6%	104.8 ± 0.31%	103.8 ± 0.12%	105 ± 2.4%
